Results: PMC9264725 (European Journal of Medicinal Chemistry, 2022)
Where two headings read alike, the source gives them in different places.

What was measured:
SARS-CoV-2 = conditions: read-out: EC50 as SARS-CoV-2 inhibitor; cited from earlier work
M^Pro = conditions: cited from earlier work
[1] = rats, oral administration; cited from earlier work
SARS-CoV-2 Delta strain = test: Plaque reduction neutralization test in Vero E6 cells, Delta; format: cell-based; conditions: PRNT, three days
SARS-CoV-2 Beta strain = test: Plaque reduction neutralization test in Vero E6 cells, Beta; format: cell-based; conditions: PRNT, three days
[2] = test system: SARS-CoV-2 USA-WA1/2020 strain; test: Plaque reduction neutralization test in Vero E6 cells, USA-WA1/2020; format: cell-based; conditions: PRNT, three days
[3] = target: M^Pro-eGFP ectopically expressed in 293T cells (Severe acute respiratory syndrome coronavirus 2, UniProt P0DTD1); test: cell-based; format: cell-based, SARS-CoV-2

For MPI8, the EC50 (SARS-CoV-2) is listed as 0.03 µM, the IC50 (M^Pro; read-out: IC50 (in vitro potency)) is listed as ~0.1 µM and the half-life [1] is listed as 1.22 h.
For CC(C)(C)CC(=O)N[C@H](C(=O)N1C[C@H]2[C@@H]([C@H]1C(=O)N[C@H](C=O)C[C@@H]1CCNC1=O)C2(C)C)C(C)(C)C [MPI40], the “Antiviral EC50” value (SARS-CoV-2 Delta strain) was “no inhibition at all tested concentrations”, the “Antiviral EC50” value (SARS-CoV-2 Beta strain) was “no inhibition at all tested concentrations” and the “Antiviral EC50” value [2] was “no inhibition at all tested concentrations”.
In the case of CC(C)(C)OC(=O)N[C@H](C(=O)N1C[C@H]2[C@@H]([C@H]1C(=O)N[C@H](C=O)C[C@@H]1CCNC1=O)C2(C)C)C(C)(C)C [MPI43], the “in cellulo potency higher than MPI40” value [3] is reported as 20 fold.
For CC(C)(C)NC(=O)N[C@H](C(=O)N1C[C@H]2[C@@H]([C@H]1C(=O)NC(CC1CCC1)C(=O)C(N)=O)C2(C)C)C(C)(C)C (stereo partly shown) [Boceprevir], the IC50 (M^Pro; read-out: Enzymatic IC50, ref 15) is listed as 8 µM and the IC50 (M^Pro; read-out: Enzymatic IC50, ref 16) is listed as 4.2 ± 0.6 µM.
For CC(C)[C@H](NC(=O)NC(C)(C)C)C(=O)N[C@@H](CC1CC1)C(=O)N[C@H](C=O)C[C@@H]1CCNC1=O [MPI39], the EC50 [3] was > 10 µM.
